This passage reports hypoglycemic rate and IC50 results from US12324812B2, “Glucopyranosyl derivatives and their uses” (SUNSHINE LAKE PHARMA CO., LTD., priority 2019, dated 2025).

Usually IC50 stands for the concentration at which inhibition is half-maximal. Lower therefore signals greater potency.

Test [1] deals with SD rats. Nature of the test: Oral glucose tolerance test in SD rats. The class given is in vivo, rat. As to conditions: male SD rats, 0.1 mg/kg once by gavage, glucose 4.0 g/kg; decline rate of AUCGlu 0-60 min after sugar loading. As to the method: 2. Oral Glucose Tolerance Test and UrinaR^y Glucose Excretion Test
The following methods were used to evaluate the effects of the compounds of the invention on improving oral glucose tolerance and glycosuria excretion.
Test method: The weight and the fasting blood glucose levels of male SD rats were measured after an overnight 15-hour fast. The rats were grouped by their weights and fasting plasma glucose levels. Each test group was administered with the corresponding test compound once by gavage at a dose of 0.1 mg/Kg, and the blank control group was administered solvent. After 30 minutes, the blood glucose level (i.e. zeropoint blood glucose) of each group was measured, and then each group was immediately administered glucose (4.0 g/kg) once by gavage. The blood was drawn from the tail vein at 15, 30 and 60 minutes after glucose administration and the blood glucose concentrations of SD rats were measured continuously on blood-glucose meter. The decline rate of the area under the blood sugar curve within 60 minutes (AUCGlu 0-60 min) after sugar loading was calculated.
After blood glucose level at 60 min time point was measured, each group was placed in a metabolism cage, and the urine was collected during 1.5 hours to 24 hours and 24 hours to 48 hours after drug administration with the metabolism cage as the unit. The urine volume of each metabolism cage at each point was recorded. The urine was collected and centrifuged to obtain the supernatant. The […] had free access to food and water during the urine collection. The urine glucose concentration of SD rats at each time point was determined on automatic biochemical analyzer.

For test [2], the target named is human SGLT1 (Homo sapiens (Human), UniProt P13866). The test can be described thus: Test of inhibitory activity on SGLT1 (14C-AMG uptake in CHO cells expressing human SGLT1). As to conditions: CHO cells expressing human SGLT1, 0.5 μM 14C-AMG, 37° C. 1 hour. The class given is cell-based. As for the experimental part:
1. Test of Inhibitory Activity on SGLT1
the following methods can be used to determine the inhibitory activity of the compounds described in the invention on SGLT-1.
mock-transfected FIP-in CHO cells (3×10^4) and CHO cells expressing human SGLT1 gene were seeded into 96-well plates respectively. The cells were incubated for 12 hours. Each well of the 96-well plate was washed with 150 μL of sodium-free buffer once. To each well was added 50 μL of sodium-containing buffer containing test compounds of different concentrations and 0.5 μM […]. The incubation mixture was incubated at 37° C. for 1 hour. To each well was added 150 μL of precooled sodium-free buffer to terminate the reaction. The cell pellet was washed with sodium-free buffer three times and the residual liquid in well was removed. To each well was added 20 μL of precooled 100 mM NaOH. The 96-well plate was vibrated at 900 rpm for 5 minutes. Scintillation fluid (80 μL) was added to each well which was then vibrated at 600 rpm for 5 minutes. The amount of 14C-AMG was quantitatively detected using liquid scintillation.

Sequence of human SGLT1 (P13866 whole entry): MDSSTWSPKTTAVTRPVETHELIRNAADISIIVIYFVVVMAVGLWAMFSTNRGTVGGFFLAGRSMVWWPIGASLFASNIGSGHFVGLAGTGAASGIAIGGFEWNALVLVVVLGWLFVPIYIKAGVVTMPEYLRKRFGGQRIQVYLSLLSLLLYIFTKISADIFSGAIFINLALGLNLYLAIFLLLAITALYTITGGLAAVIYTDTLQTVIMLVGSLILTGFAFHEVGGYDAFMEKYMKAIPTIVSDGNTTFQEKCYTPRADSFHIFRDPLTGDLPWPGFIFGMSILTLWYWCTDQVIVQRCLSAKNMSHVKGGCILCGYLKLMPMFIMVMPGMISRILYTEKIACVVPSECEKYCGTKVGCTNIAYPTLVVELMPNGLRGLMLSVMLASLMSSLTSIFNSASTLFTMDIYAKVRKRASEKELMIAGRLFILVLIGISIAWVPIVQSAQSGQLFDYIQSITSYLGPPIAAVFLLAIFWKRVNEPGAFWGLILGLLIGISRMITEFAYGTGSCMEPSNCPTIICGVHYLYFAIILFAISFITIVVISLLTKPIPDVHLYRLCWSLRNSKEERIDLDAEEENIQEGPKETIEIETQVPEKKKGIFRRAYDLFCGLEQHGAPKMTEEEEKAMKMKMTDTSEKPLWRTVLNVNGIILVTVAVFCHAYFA

For the molecule `Cc1ccc([C@]23OC[C@](CO)(O2)[C@@H](O)[C@H](O)[C@H]3O)cc1Cc1ccc(CCCC(=O)NC2(C(=O)NCCN(C)C)CCCCC2)cc1` [Example 4, N-(2-dimethylaminoethyl)-1-[4-[4-[[2-methyl-5-[(1S, 2S, 3S, 4R, 5S)-2,3,4,-trihydroxy-1-(hydroxymethyl)-6,8-dioxabicyclo [3.2.1]octane-5-yl]phenyl]methyl]phenyl]butyrylamino] cyclohexyl formamide], the hypoglycemic rate in test [1] is 26.25%. In addition, the IC50 in test [2] is 1180 pM.
Taken in the same sequence, the figures for `CC[C@H]1O[C@@H](c2ccc(C)c(Cc3ccc(CCCC(=O)NC4(C(=O)NCCN(C)C)CCCCC4)cc3)c2)[C@H](O)[C@@H](O)[C@@H]1O` [Example 1, N-(2-dimethylaminoethyl)-1-[4-[4-[[5-[(2S, 3R, 4S, 5S, 6R)-6-ethyl-3,4,5-trihydroxy-tetrahydropyran-2-yl]-2-methyl-phenyl]methyl]phenyl]butyrylamino] cyclohexyl formamide] were 31.28% and 220 pM.
In test [1], `CCC[C@H]1O[C@@H](c2ccc(C)c(Cc3ccc(CCCC(=O)NC4(C(=O)NCCN(C)C)CCCCC4)cc3)c2)[C@H](O)[C@@H](O)[C@@H]1O` [Example 3, N-(2-dimethylaminoethyl)-1-[4-[4-[[2-methyl-5-[(2S, 3R, 4S, 5S, 6R)-3,4,5-trihydroxy-6-propyl-tetrahydropyran-2-yl]phenyl]methyl]phenyl]butyrylamino] cyclohexylformamide] had a hypoglycemic rate of 29.42%. The half-maximal inhibitory concentration (IC50) in test [2] is 250 pM.
